This note sets out measurements from ChEMBL document CHEMBL5620430, “Design, synthesis and biological evaluation of indazole derivatives as selective covalent inhibitors of FGFR4 in wild-type and gatekeeper mutants” (Eur J Med Chem, 2023).

The source made the active and inactive calls. The calls are words filed in the database; no cut-off is given here.

In data set [1] the target is Fibroblast growth factor receptor 4 (Homo sapiens, UniProt P22455).
Description: Inhibition of FGFR4 (445 to 753 residues) (unknown origin) expressed in Escherichia coli
Data set [2] concerns Huh-7. Briefly: cells. Particulars: Homo sapiens.
Description: Antiproliferative activity against human Huh-7 cells measured after 24 to 48 hrs by MTT assay
Data set [3] has as its target Fibroblast growth factor receptor 1 (Homo sapiens, UniProt P11362).
Description: Inhibition of FGFR1 (unknown origin)
A short description of data set [4]: Metabolic stability in liver microsomes (unknown origin) assessed as half life. Type of data set: ADME, Microsome. (In general: Liver microsomes are a subcellular fraction often used to study metabolism.)
Data set [5] has as its system BaF3. Briefly: cells. Particulars: Mus musculus.
Description: Antiproliferative activity against mouse BaF3 cells harbouring ETV6-FGFR4-V550L mutant measured after 24 to 48 hrs by MTT assay
The nature of data set [6]: Antiproliferative activity against human L02 cells measured after 24 to 48 hrs by MTT assay. It counts as toxicity, cell-based. For orientation: Tetrazolium assays rely on reduction of a dye to a coloured formazan, in cell work by metabolically active cells.
Data set [7] has as its system BaF3. In words: cells. Particulars: Mus musculus. This is another data set of the same source.
Description: Antiproliferative activity against mouse BaF3 cells harbouring ETV6-FGFR4-N535K mutant measured after 24 to 48 hrs by MTT assay
The subject of a further data set is HepG2. Briefly: Antiproliferative activity against human HepG2 cells measured after 24 to 48 hrs by MTT assay. It counts as functional, cell-based.
Data set [8] deals with Huh-7. Briefly: Inhibition of colony formation in human Huh-7 cells assessed as reduction in number of colonies at 270 nM measured for 12 days. Conditions: time 12.0 day. It counts as functional, cell-based.
Another data set deals with Hep 3B2. Briefly: Antiproliferative activity against human Hep3B cells measured after 24 to 48 hrs by MTT assay. Type of data set: functional, cell-based.

Fibroblast growth factor receptor 4, sequence (P22455 whole entry): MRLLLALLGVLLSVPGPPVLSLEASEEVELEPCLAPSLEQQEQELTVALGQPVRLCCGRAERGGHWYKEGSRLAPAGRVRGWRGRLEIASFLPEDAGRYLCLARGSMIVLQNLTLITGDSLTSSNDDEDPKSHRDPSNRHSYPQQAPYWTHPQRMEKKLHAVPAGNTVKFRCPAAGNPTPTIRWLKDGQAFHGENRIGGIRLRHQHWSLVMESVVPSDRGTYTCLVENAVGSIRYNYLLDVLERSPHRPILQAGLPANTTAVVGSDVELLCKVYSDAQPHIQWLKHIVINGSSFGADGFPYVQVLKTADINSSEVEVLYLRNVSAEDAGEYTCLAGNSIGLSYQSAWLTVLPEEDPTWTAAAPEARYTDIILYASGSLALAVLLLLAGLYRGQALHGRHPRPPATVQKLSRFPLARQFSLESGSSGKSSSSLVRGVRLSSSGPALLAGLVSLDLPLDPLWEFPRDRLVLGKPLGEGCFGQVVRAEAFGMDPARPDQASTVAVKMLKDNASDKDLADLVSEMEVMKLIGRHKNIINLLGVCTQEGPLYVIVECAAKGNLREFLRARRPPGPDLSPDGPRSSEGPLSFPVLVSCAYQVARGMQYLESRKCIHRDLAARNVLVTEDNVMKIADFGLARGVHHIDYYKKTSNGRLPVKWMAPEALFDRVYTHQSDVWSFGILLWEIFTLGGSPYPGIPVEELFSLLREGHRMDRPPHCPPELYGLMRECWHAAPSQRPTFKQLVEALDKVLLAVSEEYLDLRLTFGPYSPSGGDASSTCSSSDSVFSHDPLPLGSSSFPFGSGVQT
Fibroblast growth factor receptor 1, sequence (P11362 whole entry): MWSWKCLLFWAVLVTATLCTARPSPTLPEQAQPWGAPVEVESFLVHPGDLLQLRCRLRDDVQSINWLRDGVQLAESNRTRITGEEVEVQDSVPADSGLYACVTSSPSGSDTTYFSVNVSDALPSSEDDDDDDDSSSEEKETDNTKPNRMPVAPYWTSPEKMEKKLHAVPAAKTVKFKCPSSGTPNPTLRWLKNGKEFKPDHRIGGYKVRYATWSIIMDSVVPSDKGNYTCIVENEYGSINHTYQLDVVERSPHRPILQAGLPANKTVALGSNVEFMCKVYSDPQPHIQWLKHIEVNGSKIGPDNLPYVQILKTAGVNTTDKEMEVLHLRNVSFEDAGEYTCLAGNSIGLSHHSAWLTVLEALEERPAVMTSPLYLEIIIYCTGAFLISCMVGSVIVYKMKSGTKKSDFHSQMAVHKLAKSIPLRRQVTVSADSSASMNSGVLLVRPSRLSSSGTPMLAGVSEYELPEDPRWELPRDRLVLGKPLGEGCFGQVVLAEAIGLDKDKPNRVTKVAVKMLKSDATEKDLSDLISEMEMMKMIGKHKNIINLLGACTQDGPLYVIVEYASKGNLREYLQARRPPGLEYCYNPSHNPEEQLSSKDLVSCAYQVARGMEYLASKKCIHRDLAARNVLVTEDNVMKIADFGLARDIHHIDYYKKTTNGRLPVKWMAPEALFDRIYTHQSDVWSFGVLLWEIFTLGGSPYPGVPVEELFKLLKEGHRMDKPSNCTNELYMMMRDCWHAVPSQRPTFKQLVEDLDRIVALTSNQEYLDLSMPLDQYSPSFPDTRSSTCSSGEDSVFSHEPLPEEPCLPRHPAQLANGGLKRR

Turning to `C=CC(=O)Nc1cc(F)ccc1-c1n[nH]c2ccc(O[C@H](C)c3c(Cl)cncc3Cl)cc12`, the IC50 in [1] was 3.5 nM; in the data set with Huh-7 [2], 190 nM; in data set [3], over 3000 nM.

For the molecule `C=CC(=O)Nc1cc2c(cc1-c1n[nH]c3ccc(O[C@H](C)c4c(Cl)cncc4Cl)cc13)CCN(CCO)C2`, the IC50 is 2.6 nM in data set [1]; 1 nM with BaF3 [5]; 30 nM in the data set on Huh-7 [2]; over 10000 nM in data set [6]; over 3000 nM in data set [3]. In addition, the half-life in data set [4] came to 3.04 min.

Consider `C=CC(=O)Nc1ccccc1-c1n[nH]c2ccc(OC(C)c3c(Cl)cncc3Cl)cc12` (racemic), for which the IC50 in the data set with Huh-7 [2] is 221 nM; in [3], over 3000 nM.

Take `C=CC(=O)Nc1cc2c(cc1-c1n[nH]c3ccc(O[C@H](C)c4c(Cl)cncc4Cl)cc13)CN(CCOC)C2`: the IC50 is 3.2 nM in data set [1], 193 nM in the data set with Huh-7 [2] and over 3000 nM in [3].

As for `C=CC(=O)Nc1cc2c(cc1-c1n[nH]c3ccc(O[C@H](C)c4c(Cl)cncc4Cl)cc13)CN(C(=O)OC(C)(C)C)C2`, the figures for the IC50 (in the data set with Huh-7 [2]; in [3]) were 859 nM and over 3000 nM, respectively.

Turning to `C=CC(=O)Nc1cc(N2CCN(C)CC2)ccc1-c1n[nH]c2ccc(O[C@H](C)c3c(Cl)cncc3Cl)cc12`, the IC50 in [1] was 1.8 nM; in the data set on BaF3 [5], 2 nM; in the data set with Huh-7 [2] it was 12 nM; in [6], 3940 nM; in [3] it was over 3000 nM. In data set [4], the half-life came out at 3.8 min.

Regarding `C=CC(=O)Nc1cc2c(cc1-c1n[nH]c3ccc(O[C@H](C)c4c(Cl)cncc4Cl)cc13)CN(S(C)(=O)=O)C2`, the IC50 in [1] was 3.5 nM; in the data set on Huh-7 [2], 48 nM; in [3] it was over 3000 nM.

Take `C=CC(=O)N[C@H]1CCOC[C@H]1Nc1ncc2cc(-c3c(Cl)c(OC)cc(OC)c3Cl)ccc2n1` [FISOGATINIB]: the IC50 in data set [1] was 3.9 nM; with BaF3 [7], 528 nM; in the data set on BaF3 [5], 396 nM; in the data set on HepG2, 4430 nM; in the data set on Hep 3B2, 46 nM; in [6] it was over 10000 nM. For the same molecule, in data set [3], half-maximal inhibition (IC50) was put at 1030 nM. In addition, the inhibition result with Huh-7 [8] is “Active”.

Take `C=CC(=O)Nc1cccc(-c2n[nH]c3ccc(O[C@H](C)c4c(Cl)cncc4Cl)cc23)c1`: the figures for the IC50 (in data set [1]; in the data set with Huh-7 [2]; in [3]) were 1200 nM, 2440 nM and over 3000 nM, respectively.

Take `C=CC(=O)Nc1ccccc1-c1n[nH]c2ccc(O[C@H](C)c3c(Cl)cncc3Cl)cc12`: the results for the IC50 (in the data set on Huh-7 [2]; in data set [3]) were 80 nM and over 3000 nM, respectively.

For `C=CC(=O)Nc1cc(N2CCOCC2)ccc1-c1n[nH]c2ccc(O[C@H](C)c3c(Cl)cncc3Cl)cc12`, the IC50 was 2.2 nM in [1]; 2 nM in the data set with BaF3 [5]; 17 nM with Huh-7 [2]; over 10000 nM in [6]; over 3000 nM in [3]. The half-life in [4] was 1.37 min.

In turn, `C=CC(=O)Nc1ccccc1-c1n[nH]c2ccc(O[C@@H](C)c3c(Cl)cncc3Cl)cc12` displayed an IC50 in the data set on Huh-7 [2] of over 3000 nM.

Take `C=CC(=O)Nc1ccc(N2CCOCC2)cc1-c1n[nH]c2ccc(O[C@H](C)c3c(Cl)cncc3Cl)cc12`: the IC50 in data set [1] is 2.5 nM; in the data set on BaF3 [5], 3 nM; in the data set on Huh-7 [2], 20 nM; in data set [6] it was over 10000 nM; in data set [3], over 3000 nM. Besides, the half-life in data set [4] was determined as 2.73 min.

Turning to `C=CC(=O)Nc1cc2c(cc1-c1n[nH]c3ccc(O[C@H](C)c4c(Cl)cncc4Cl)cc13)CN(C)CC2`, the IC50 is 3.1 nM in data set [1], 132 nM with Huh-7 [2] and over 3000 nM in data set [3].

As to `C=CC(=O)Nc1ccccc1-c1n[nH]c2ccc(OC(C)c3c(F)cncc3F)cc12` (stereo not drawn), the IC50 is 42 nM in [1], 1270 nM in the data set on Huh-7 [2] and over 3000 nM in data set [3].

Turning to `C=CC(=O)Nc1cc2c(cc1-c1n[nH]c3ccc(O[C@H](C)c4c(Cl)cncc4Cl)cc13)CN(C)C2`, the results for the IC50 (in data set [1]; in the data set on Huh-7 [2]; in data set [3]) were 2.7 nM, 50 nM and over 3000 nM, respectively.

For `C=CC(=O)Nc1cc2c(cc1-c1n[nH]c3ccc(O[C@H](C)c4c(Cl)cncc4Cl)cc13)CCN(CCOC)C2`, the half-maximal inhibitory concentration (IC50) in data set [1] was 2.5 nM; in the data set on Huh-7 [2], 54 nM; in data set [3], over 3000 nM.

`C=CC(=O)Nc1ccccc1-c1n[nH]c2ccc(OCc3c(Cl)cncc3Cl)cc12`: the values for the IC50 (in [1]; in the data set with Huh-7 [2]; in data set [3]) were 27 nM, 754 nM and over 3000 nM, respectively.

Take `C=CC(=O)Nc1ccccc1-c1n[nH]c2ccc(OCc3c(Cl)cccc3Cl)cc12`: the values for the 50% inhibitory concentration (IC50) (in data set [1]; with Huh-7 [2]) were 764 nM and over 3000 nM, respectively.

Take `C=CC(=O)Nc1ccccc1-c1n[nH]c2ccc(OCc3ccncc3)cc12`: the results for the IC50 (in data set [1]; in the data set with Huh-7 [2]) were 243 nM and over 3000 nM, respectively.

As for `C=CC(=O)Nc1ccc(F)cc1-c1n[nH]c2ccc(O[C@H](C)c3c(Cl)cncc3Cl)cc12`, the 50% inhibitory concentration (IC50) in data set [1] is 3.2 nM; with Huh-7 [2], 324 nM; in data set [3] it was over 3000 nM.

Take `C=CC(=O)Nc1ccc(N2CCN(C)CC2)cc1-c1n[nH]c2ccc(O[C@H](C)c3c(Cl)cncc3Cl)cc12`: the IC50 in data set [1] was 2.1 nM; with BaF3 [5], 1 nM; in the data set on Huh-7 [2] it was 15 nM; in [6] it was 4280 nM; in data set [3], over 3000 nM. Also, the half-life in [4] came out at 2.41 min.

Turning to `C=CC(=O)Nc1cc2c(cc1-c1n[nH]c3ccc(O[C@H](C)c4c(Cl)cncc4Cl)cc13)CN(CCO)C2`, the IC50 in [1] is 1.9 nM; in the data set with Huh-7 [2] it was 67 nM; in data set [3], over 3000 nM.

On to `C=CC(=O)Nc1ccccc1-c1n[nH]c2ccc(OCc3ccccn3)cc12`, for which the 50% inhibitory concentration (IC50) was 481 nM in data set [1] and over 3000 nM in the data set on Huh-7 [2].

For `C=CC(=O)Nc1cc2c(cc1-c1n[nH]c3ccc(O[C@H](C)c4c(Cl)cncc4Cl)cc13)CN(CCO)CC2`, the IC50 in [1] was 6.2 nM; in the data set on Huh-7 [2] it was 275 nM; in data set [3], over 3000 nM.

Regarding `C=CC(=O)Nc1cc2c(cc1-c1n[nH]c3ccc(O[C@H](C)c4c(Cl)cncc4Cl)cc13)CN(CCOC)CC2`, the figures for the IC50 (in data set [1]; in the data set with Huh-7 [2]; in data set [3]) were 9.7 nM, 753 nM and over 3000 nM, respectively.

Regarding `C=CC(=O)Nc1ccccc1-c1n[nH]c2ccc(OC(C)c3c(Cl)cccc3Cl)cc12` (stereo not drawn), the IC50 in data set [1] is 252 nM; with Huh-7 [2], over 3000 nM.

Consider `C=CC(=O)Nc1ccccc1-c1n[nH]c2ccc(OC(C)c3ccncc3)cc12` (stereo not drawn), for which the results for the IC50 (in data set [1]; with Huh-7 [2]; in data set [3]) were 169 nM, over 3000 nM and over 3000 nM, respectively.

With `C=CC(=O)Nc1ccccc1-c1n[nH]c2ccc(OCc3cccnc3)cc12`, the results for the IC50 (in data set [1]; with Huh-7 [2]; in data set [3]) were 83 nM, over 3000 nM and over 3000 nM, respectively.

As usually defined, the IC50 is the point on the concentration scale where inhibition reaches its midpoint. A low value points to greater potency in that assay. What is called half-life is how long it takes for the measured level to halve.
